Measured values as given in publication PMC7064328 (Environmental Health Perspectives, 2020).

Experiments:
embryo–placenta unit = assay: Embryo/placental growth metrics (mixed-effect models); format: in vivo, mouse (CD-1)
Source text: From each uterus, first, viable embryos and their matched placentas were collected in succession within a horn and immediately snap frozen ( n=2–5 per litter ), and subsequent embryos were collected for growth measurements ( n=2–11 per litter ). Additional placentas were collected and placed in 4% paraformaldehyde (PFA) for histological analysis (Block 2 only). Amniotic fluid was collected by needle aspiration from litters euthanized at E11.5 and snap frozen in liquid nitrogen. Embryo livers were collected from litters euthanized at E17.5 and snap frozen in liquid nitrogen. Dam livers were weighed, a portion of the left lateral lobe was placed in 4% PFA for histology, and another portion of the same lobe was snap frozen in liquid nitrogen. A third liver section was obtained from Block 2 dams and fixed in McDowell and Trump’s fixative for electron microscopy (EM). Gross lesions were collected when observed and placed in 4% PFA for histology. Dam kidneys were removed, a cross section was prepared from the right kidney, a longitudinal section was prepared from the left kidney, and both sections were fixed in 4% PFA for histological analysis.
Gross observations were recorded at necropsy. Embryo sex was determined by polymerase chain reaction (PCR) amplification of the Sry gene (forward, 5′-[…]-3′, and reverse, 3′-[…]-5′) using a snipped portion of tissue (TransnetYX®, Inc.). Embryos and their placentas were weighed separately as wet tissue. Images of embryos were obtained on a Leica Z16 APO imaging scope, and embryo length was measured as snout-to-rump distance using FIJI ([Schindelin et al. 2012]) and Zen 2 Blue (Zeiss).
Embryo and placental metrics were analyzed using mixed-effect models and included a priori fixed effects of treatment group and litter size and a random-effects term for the dam using the lme4 package. Embryo and placental metrics included embryo weight, embryo length, placental weight, and embryo:placenta weight ratios, a meaningful predictor of fetal birth outcomes in humans ([Hayward et al. 2016]). To account for potential introduction of random effects, the study block (Block 1 or Block 2) and experimenter handling of embryo/placental tissues (Experimenter A or Experimenter B) were included as additional random effects. Models were fit in a stepwise procedure for random effects, and final models included treatment group and litter size as fixed effects using the lmerTest package ([Kuznetsova et al. 2017]). All final models included dam as a random effect but were allowed to vary in the inclusion of experimenter and experimental block random effects based on likelihood ratio test results. Point estimates and 95% CIs were determined from the final model using the Wald method. The number of individual observations for each outcome (embryo weight, placenta weight, and embryo:placenta weight ratio) and the number of litters evaluated in the mixed-effect models are shown in Table S1.

Pregnant CD-1 mice = assay: Clinical chemistry of dam serum and urine; format: in vivo, mouse (CD-1); details: for ALB / ALP / ALT / AST / BUN / Chol / Cre / Glu / HDL / LDL / SDH / TBA / TP / Trig: dam serum; for Ucrea: dam urine
Method: Dam livers, kidneys, and placentas were trimmed and embedded by the NIEHS Mouse Embryo Phenotyping Core. Tissues collected at necropsy were fixed in 4% PFA for 72 h and paraffin embedded, and 5-μm sections were prepared and stained with hematoxylin and eosin (H&E). Pathology was evaluated and a pathology review conducted by S.A.E. Diplomate American College of Veterinary Pathologists (DACVP). Pathology reviews were conducted as an informed approach analysis [e.g., nonblinded analysis; see Sills et al. ([2019])]. Select tissue slides were scanned using the AT2 Scanner (Aperio). Images were then captured for publication using the ImageScope software; version 12.3.0.5056 (Aperio). Serum and urine obtained from dams in Block 2 were analyzed using the AU480 clinical chemistry analyzer (Beckman Coulter Inc.). Reagents and calibration standards used to measure alkaline phosphatase (ALP), alanine aminotransferase (ALT), aspartate aminotransferase (AST), blood urea nitrogen (BUN), serum creatinine, urine creatinine, glucose (Glu), total protein (TP), triglyceride (Trig), high-density lipoprotein (HDL), cholesterol (Chol), and albumin (ALB) were purchased from Beckman Coulter Inc. Reagents for sorbitol dehydrogenase (SDH), total bile acid (TBA), and micro-TP were purchased from Sekisui Diagnostics. The reagent used to measure low-density lipoprotein (LDL) was purchased form Diazyme Laboratories.

SMILES: N.O=C(O)C(F)(OC(F)(F)C(F)(F)C(F)(F)F)C(F)(F)F (stereo not drawn) [GenX, ammonium 2,3,3,3-tetrafluoro-2-(heptafluoropropoxy)propanoate]
- Embryo length, adjusted estimate (95% CI) (embryo–placenta unit; E11.5, 2 mg/kg/d): 17.6 (14.7, 20.5) mm
- Embryo weight, adjusted estimate (95% CI) (embryo–placenta unit; E11.5, 2 mg/kg/d): 49.9 (16.7, 83.1) mg
- Placental weight, adjusted estimate (95% CI) (embryo–placenta unit; E11.5, 2 mg/kg/d): 34.0 (0.1, 67.8) mg
- Embryo length, adjusted estimate (95% CI) (embryo–placenta unit; E11.5, 10 mg/kg/d): 17.4 (14.5, 20.3) mm
- Embryo weight, adjusted estimate (95% CI) (embryo–placenta unit; E11.5, 10 mg/kg/d): 45.2 (12.0, 78.3) mg
- Placental weight, adjusted estimate (95% CI) (embryo–placenta unit; E11.5, 10 mg/kg/d): 38.4 (4.5, 72.2) mg
- Embryo length, adjusted estimate (95% CI) (embryo–placenta unit; E17.5, 2 mg/kg/d): 32.7 (28.7, 36.6) mm
- Embryo weight, adjusted estimate (95% CI) (embryo–placenta unit; E17.5, 2 mg/kg/d): 1369.8 (1111.3, 1628.4) mg
- Placental weight, adjusted estimate (95% CI) (embryo–placenta unit; E17.5, 2 mg/kg/d): 137.1 (105.6, 168.6) mg
- Embryo length, adjusted estimate (95% CI) (embryo–placenta unit; E17.5, 10 mg/kg/d): 33.8 (29.8, 37.7) mm
- Embryo weight, adjusted estimate (95% CI) (embryo–placenta unit; E17.5, 10 mg/kg/d): 1337.0 (1077.5, 1596.4) mg
- Placental weight, adjusted estimate (95% CI) (embryo–placenta unit; E17.5, 10 mg/kg/d): 146.3 (114.7, 177.9) mg
- Chol higher compared with controls (Pregnant CD-1 mice; E11.5, 2 mg/kg/d): 66%
- Dam serum Trig lowered vs controls (Pregnant CD-1 mice; E11.5, 2 mg/kg/d): 43%
- HDL higher compared with controls (Pregnant CD-1 mice; E11.5, 2 mg/kg/d): 56%
- Dam serum Trig lowered vs controls (Pregnant CD-1 mice; E11.5, 10 mg/kg/d): 61%
- Dam serum Trig lower vs controls (Pregnant CD-1 mice; E17.5, 10 mg/kg/d): 74%
- LDL lower vs controls (Pregnant CD-1 mice; E17.5, 10 mg/kg/d): 31%
- ALB (Pregnant CD-1 mice; E11.5, 2 mg/kg/d): 2.75±0.33 (4) g/dL
- ALP (Pregnant CD-1 mice; E11.5, 2 mg/kg/d): 58.4±9.0 (5) U/L
- ALT (Pregnant CD-1 mice; E11.5, 2 mg/kg/d): 24.2±13.7 (5) U/L
- AST (Pregnant CD-1 mice; E11.5, 2 mg/kg/d): 69.0±22.0 (5) U/L
- BUN (Pregnant CD-1 mice; E11.5, 2 mg/kg/d): 18.3±4.6 (4) mg/dL
- Chol (Pregnant CD-1 mice; E11.5, 2 mg/kg/d): 93.4±27.8 (5) mg/dL
- Cre (Pregnant CD-1 mice; E11.5, 2 mg/kg/d): 0.2±0.04 (4) mg/dL
- Glu (Pregnant CD-1 mice; E11.5, 2 mg/kg/d): 249.3±25.8 (4) mg/dL
- HDL (Pregnant CD-1 mice; E11.5, 2 mg/kg/d): 50.2±15.7 (5) mg/dL
- LDL (Pregnant CD-1 mice; E11.5, 2 mg/kg/d): 15±4.8 (4) mg/dL
- SDH (Pregnant CD-1 mice; E11.5, 2 mg/kg/d): 7.0±6.5 (4) U/L
- TBA (Pregnant CD-1 mice; E11.5, 2 mg/kg/d): 1.4±0.55 (5) μM/L
- TP (Pregnant CD-1 mice; E11.5, 2 mg/kg/d): 4.5±0.48 (4) g/dL
- Trig (Pregnant CD-1 mice; E11.5, 2 mg/kg/d): 117.6±33.9 (5) mg/dL
- ALB (Pregnant CD-1 mice; E11.5, 10 mg/kg/d): 2.8±0.17 (3) g/dL
- ALP (Pregnant CD-1 mice; E11.5, 10 mg/kg/d): 83.0±25.8 (5) U/L
- ALT (Pregnant CD-1 mice; E11.5, 10 mg/kg/d): 78.2±62.0 (5) U/L
- AST (Pregnant CD-1 mice; E11.5, 10 mg/kg/d): 136.8±138.9 (4) U/L
- BUN (Pregnant CD-1 mice; E11.5, 10 mg/kg/d): 13.7±1.5 (3) mg/dL
- Chol (Pregnant CD-1 mice; E11.5, 10 mg/kg/d): 77.0±16.4 (4) mg/dL
- Cre (Pregnant CD-1 mice; E11.5, 10 mg/kg/d): 0.18±0.02 (3) mg/dL
- Glu (Pregnant CD-1 mice; E11.5, 10 mg/kg/d): 226.7±28.9 (3) mg/dL
- HDL (Pregnant CD-1 mice; E11.5, 10 mg/kg/d): 43.3±6.1 (4) mg/dL
- LDL (Pregnant CD-1 mice; E11.5, 10 mg/kg/d): 12.5±1.9 (4) mg/dL
- SDH (Pregnant CD-1 mice; E11.5, 10 mg/kg/d): 8.0±3.65 (4) U/L
- TBA (Pregnant CD-1 mice; E11.5, 10 mg/kg/d): 35.3±67.8 (4) μM/L
- TP (Pregnant CD-1 mice; E11.5, 10 mg/kg/d): 4.37±0.29 (3) g/dL
- Trig (Pregnant CD-1 mice; E11.5, 10 mg/kg/d): 80.3±14.4 (4) mg/dL
- ALB (Pregnant CD-1 mice; E17.5, 2 mg/kg/d): 2.32±0.26 (5) g/dL
- ALP (Pregnant CD-1 mice; E17.5, 2 mg/kg/d): 55.4±11.8 (5) U/L
- ALT (Pregnant CD-1 mice; E17.5, 2 mg/kg/d): 4.4±3.9 (5) U/L
- AST (Pregnant CD-1 mice; E17.5, 2 mg/kg/d): 65.6±12.1 (5) U/L
- BUN (Pregnant CD-1 mice; E17.5, 2 mg/kg/d): 13.6±1.1 (5) mg/dL
- Chol (Pregnant CD-1 mice; E17.5, 2 mg/kg/d): 86.6±17.1 (5) mg/dL
- Cre (Pregnant CD-1 mice; E17.5, 2 mg/kg/d): 0.17±0.03 (5) mg/dL
- Glu (Pregnant CD-1 mice; E17.5, 2 mg/kg/d): 123.2±13.1 (5) mg/dL
- HDL (Pregnant CD-1 mice; E17.5, 2 mg/kg/d): 39.4±8.5 (5) mg/dL
- LDL (Pregnant CD-1 mice; E17.5, 2 mg/kg/d): 20.0±3.9 (5) mg/dL
- SDH (Pregnant CD-1 mice; E17.5, 2 mg/kg/d): 1.2±2.2 (5) U/L
- TBA (Pregnant CD-1 mice; E17.5, 2 mg/kg/d): 4.8±3.0 (5) μM/L
- TP (Pregnant CD-1 mice; E17.5, 2 mg/kg/d): 4.1±0.36 (5) g/dL
- Trig (Pregnant CD-1 mice; E17.5, 2 mg/kg/d): 257.0±120.3 (5) mg/dL
- ALB (Pregnant CD-1 mice; E17.5, 10 mg/kg/d): 2.26±0.3 (5) g/dL
- ALP (Pregnant CD-1 mice; E17.5, 10 mg/kg/d): 88.8±13.0 (5) U/L
- ALT (Pregnant CD-1 mice; E17.5, 10 mg/kg/d): 9.6±2.1 (5) U/L
- AST (Pregnant CD-1 mice; E17.5, 10 mg/kg/d): 113.2±36.6 (5) U/L
- BUN (Pregnant CD-1 mice; E17.5, 10 mg/kg/d): 15.2±1.8 (5) mg/dL
- Chol (Pregnant CD-1 mice; E17.5, 10 mg/kg/d): 97.4±8.4 (5) mg/dL
- Cre (Pregnant CD-1 mice; E17.5, 10 mg/kg/d): 0.15±0.06 (5) mg/dL
- Glu (Pregnant CD-1 mice; E17.5, 10 mg/kg/d): 111.6±15.5 (5) mg/dL
- HDL (Pregnant CD-1 mice; E17.5, 10 mg/kg/d): 50.0±8.9 (5) mg/dL
- LDL (Pregnant CD-1 mice; E17.5, 10 mg/kg/d): 15.2±2.9 (5) mg/dL
- SDH (Pregnant CD-1 mice; E17.5, 10 mg/kg/d): 11.4±6.8 (5) U/L
- TBA (Pregnant CD-1 mice; E17.5, 10 mg/kg/d): 6.2±4.2 (5) μM/L
- TP (Pregnant CD-1 mice; E17.5, 10 mg/kg/d): 3.9±0.52 (5) g/dL
- Trig (Pregnant CD-1 mice; E17.5, 10 mg/kg/d): 120.6±31.7 (5) mg/dL
- Ucrea (Pregnant CD-1 mice; E11.5, 2 mg/kg/d): 53.2±14.0 (3) mg/dL
- Ucrea (Pregnant CD-1 mice; E11.5, 10 mg/kg/d): 82.9±33.2 (5) mg/dL
- Ucrea (Pregnant CD-1 mice; E17.5, 2 mg/kg/d): 18.6±5.1 (4) mg/dL
- Ucrea (Pregnant CD-1 mice; E17.5, 10 mg/kg/d): 20.2±15.7 (4) mg/dL
